Biological target: T1, GLP-1R (Homo sapiens, UniProt P43220)
T1 construct: expressed in transfected cells
Assay: GLP-1R agonistic effect in GLP1R-cAmp-Luc cells (luciferase reporter; titled 'Enzymatic assay')
Format: cell-based
Settings: for EC50: 4 hours incubation, firefly luciferin signal; for EC50 of Positive reference / EC50 of Compound of the Present Application: Positive reference is PF-06882961
Procedure: The GLP-1R agonistic effects of the test compounds were determined using GLP1R-cAmp-Luc cells. 1) The test compound was dissolved in DMSO and mixed well until the test compound was completely dissolved. The test compounds were dissolved in DMSO to prepare 10 mM stock solutions. All compounds were diluted with DMEM medium (high sugar, Puromycin^+, Hygromycin B^+) to an initial concentration of 1250 nM, and then subjected to 5-fold serial dilution to a total of 7 concentration gradients. The GLP1R-cAmp-Luc cells were seeded in white-wall 96-well cell culture plates at a density of 1×10^5/mL, with 90 µL cell suspension per well; the test compound at each of the 7 concentration gradients was added at 10 µL per well, with the actual initial working concentration of 125 nM; and the cells were placed in a 37 °C, 5% CO2 cell incubator for 4 hours; 2) 100 µL of luciferin potassium salt solution diluted to 300 µg/mL in PBS was added to each well at a working concentration of 150 µg/mL and incubated at room temperature for 30 minutes; 3) fluorescence signals of firefly luciferin were measured with a multifunctional microplate reader (PerkinElmer, Nivo); and the fluorescence values were processed using GraphPad Prism software to calculate EC50 values.

T1 sequence (P43220 24-463, species assumed): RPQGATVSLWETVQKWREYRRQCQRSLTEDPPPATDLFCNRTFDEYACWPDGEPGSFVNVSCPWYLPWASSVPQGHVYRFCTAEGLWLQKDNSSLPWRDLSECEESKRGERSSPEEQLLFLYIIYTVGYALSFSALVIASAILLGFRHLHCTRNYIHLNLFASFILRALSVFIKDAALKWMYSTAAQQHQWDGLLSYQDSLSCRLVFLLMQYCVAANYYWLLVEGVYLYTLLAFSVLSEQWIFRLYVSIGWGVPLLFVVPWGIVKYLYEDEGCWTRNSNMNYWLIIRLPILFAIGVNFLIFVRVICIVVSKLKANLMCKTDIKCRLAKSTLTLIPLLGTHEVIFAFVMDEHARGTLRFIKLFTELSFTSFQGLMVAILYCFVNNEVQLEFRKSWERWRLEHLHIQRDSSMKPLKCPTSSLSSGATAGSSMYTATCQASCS

Row | SMILES | EC50 [nM] | EC50 of Positive reference / EC50 of Compound of the Present Application
1 | COc1cc(C(=O)O)cc2c1nc(Cc1c(F)cc(-c3nc(OCc4ccc(C5COC5)cc4F)ncc3F)c3c1CCO3)n2C[C@@H]1CCO1 [Compound 128, (S)-2-((7-(5-fluoro-2-((2-fluoro-4-(oxetan-3-yl)benzyl)oxy)pyrimidin-4-yl)-5-fluoro-2,3-dihydrobenzofuran-4-yl)methyl)-4-methoxy-1-(oxetan-2-ylmethyl)-1H-benzo[d]imidazole-6-carboxylic acid] | ≤ 1 | Ratio ≥10
2 | O=C(O)c1ccc2nc(Cc3ccc(-c4cccc(OCc5ccc(Cl)cc5F)n4)c4[nH]ccc34)n(C[C@@H]3CCO3)c2c1 [Compound 9, (S)-2-((7-(6-((4-chloro-2-fluorobenzyl)oxy)pyridin-2-yl)-1H-indol-4-yl)methyl)-1-(oxetan-2-ylmethyl)-1H-benzo[d]imidazole-6-carboxylic acid] | 1 to 5 | 
3 | N#Cc1ccc(COc2cccc(-c3ccc(Cc4nc5ccc(C(=O)O)cc5n4C[C@@H]4CCO4)c4c3OCO4)n2)c(F)c1 [Compound 1, (S)-2-((7-(6-((4-cyano-2-fluorobenzyl)oxy)pyridin-2-yl)benzo[d][1,3]dioxolan-4-yl)methyl)-1-(oxetan-2-ylmethyl)-1H-benzo[d]imidazole-6-carboxylic acid] | 5 to 10 | 
4 | COc1cc(C(F)(F)F)ccc1COc1cccc(-c2ccc(Cc3nc4c(OC)cc(C(=O)O)cc4n3C[C@@H]3CCO3)c3c2OCCO3)n1 [Compound 62, (S)-4-methoxy-2-((8-(6-((2-methoxy-4-(trifluoromethyl)benzyl)oxy)pyridin-2-yl)-2,3-dihydrobenzo[b][1,4]dioxan-5-yl)methyl)-1-(oxetan-2-ylmethyl)-1H-benzo[d]imidazole-6-carboxylic acid] | 1 to 5 | 
5 | COc1cc(C(=O)O)cc2c1nc(Cc1c(F)cc(-c3ccc(F)c(OCc4ccc(C5COC5)cc4F)n3)c3c1CCO3)n2C[C@@H]1CCO1 [Compound 126, (S)-2-((7-(5-fluoro-6-((2-fluoro-4-(oxetan-3-yl)benzyl)oxy)pyridin-2-yl)-5-fluoro-2,3-dihydrobenzofuran-4-yl)methyl)-4-methoxy-1-(oxetan-2-ylmethyl)-1H-benzo[d]imidazole-6-carboxylic acid] | ≤ 1 | Ratio ≥10
6 | COc1cc(C(F)(F)F)ccc1COc1nc(-c2cc(F)c(Cc3nc4c(OC)cc(C(=O)O)cc4n3C[C@@H]3CCO3)c3c2OCC3)ccc1F [Compound 116, (S)-2-((7-(5-fluoro-6-((2-methoxy-4-(trifluoromethyl)benzyl)oxy)pyridin-2-yl)-5-fluoro-2,3-dihydrobenzofuran-4-yl)methyl)-4-methoxy-1-(oxetan-2-ylmethyl)-1H-benzo[d]imidazole-6-carboxylic acid] | ≤ 1 | Ratio ≥10
7 | N#Cc1ccc(COc2cccc(-c3cc(F)c(Cc4nc5c(F)cc(C(=O)O)cc5n4C[C@@H]4CCO4)c4c3OCC4)n2)c(F)c1 [Compound 13, (S)-2-((7-(6-((4-cyano-2-fluorobenzyl)oxy)pyridin-2-yl)-5-fluoro-2,3-dihydrobenzofuran-4-yl)methyl)-4-fluoro-1-(oxetan-2-ylmethyl)-1H-benzo[d]imidazole-6-carboxylic acid] | ≤ 1 | Ratio ≥10
8 | COc1cc(C(=O)O)cc2c1nc(Cc1c(F)cc(-c3ccnc(OCc4ccc(C5COC5)cc4F)n3)c3c1CCO3)n2C[C@@H]1CCO1 [Compound 120, (S)-2-((7-(2-((2-fluoro-4-(oxetan-3-yl)benzyl)oxy)pyrimidin-4-yl)-5-fluoro-2,3-dihydrobenzofuran-4-yl)methyl)-4-methoxy-1-(oxetan-2-ylmethyl)-1H-benzo[d]imidazole-6-carboxylic acid] | ≤ 1 | Ratio ≥10
9 | COc1cc(C(F)(F)F)ccc1COc1ccnc(-c2cc(F)c(Cc3nc4c(OC)cc(C(=O)O)cc4n3C[C@@H]3CCO3)c3c2OCC3)n1 [Compound 125, (S)-2-((7-(4-((2-methoxy-4-(trifluoromethyl)benzyl)oxy)pyrimidin-2-yl)-5-fluoro-2,3-dihydrobenzofuran-4-yl)methyl)-4-methoxy-1-(oxetan-2-ylmethyl)-1H-benzo[d]imidazole-6-carboxylic acid] | ≤ 1 | Ratio ≥10
10 | CC(C)Oc1cc(C(=O)O)cc2c1nc(Cc1c(F)cc(-c3ccnc(OCc4ccc(Cl)cc4F)n3)c3c1CCO3)n2C[C@@H]1CCO1 [Compound 119, (S)-2-((7-(2-((4-chloro-2-fluorobenzyl)oxy)-pyrimidin-4-yl)-5-fluoro-2,3-dihydrobenzofuran-4-yl)methyl)-4-isopropoxy-1-(oxetan-2-ylmethyl)-1H-benzo[d]imidazole-6-carboxylic acid] | 1 to 5 | 
11 | N#Cc1ccc(COc2cccc(-c3cc(Cl)c(Cc4nc5ccc(C(=O)O)cc5n4C[C@@H]4CCO4)c4c3OCC4)n2)c(F)c1 [Compound 7, (S)-2-((5-chloro-7-(6-((4-cyano-2-fluorobenzyl)oxy)pyridin-2-yl)-2,3-dihydrobenzofuran-4-yl)methyl)-1-(oxetan-2-ylmethyl)-1H-benzo[d]imidazole-6-carboxylic acid] | ≤ 1 | Ratio ≥10
12 | COc1cc(C(=O)O)cc2c1nc(Cc1c(F)cc(-c3ccc(F)c(OCc4ccc(C#N)cc4F)n3)c3c1CCO3)n2C[C@@H]1CCO1 [Compound 115] | ≤ 1 | Ratio ≥10

Next, values leading:

Row | EC50 [nM] | EC50 of Positive reference / EC50 of Compound of the Present Application | SMILES
13 | 1 to 5 |  | COc1cc(C(=O)O)cc2c1nc(Cc1c(F)cc(-c3ccc(Br)c(OCc4ccc(Cl)cc4F)n3)c3c1CCO3)n2C[C@@H]1CCO1 [Compound 109, (S)-2-((7-(5-bromo-6-((4-chloro-2-fluorobenzyl)oxy)pyridin-2-yl)-5-fluoro-2,3-dihydrobenzofuran-4-yl)methyl)-4-methoxy-1-(oxetan-2-ylmethyl)-1H-benzo[d]imidazole-6-carboxylic acid]
14 | 1 to 5 |  | COc1cc(C(=O)O)cc2c1nc(Cc1c(F)cc(-c3ccnc(OCc4ccc(Cl)cc4F)n3)c3c1CCO3)n2CC1(CF)CC1 [Compound 112, 2-((7-(2-((4-Chloro-2-fluorobenzyl)oxy)pyrimidin-4-yl)-5-fluoro-2,3-dihydrobenzofuran-4-yl)methyl)-1-((1-(fluoromethyl)cyclopropyl)methyl)-4-methoxy-1H-benzo[d]imidazole-6-carboxylic acid]
15 | 1 to 5 |  | CCn1cncc1Cn1c(Cc2c(F)cc(-c3cccc(OCc4ccc(Cl)cc4F)n3)c3c2CCO3)nc2c(OC)cc(C(=O)O)cc21 [Compound 111]
16 | ≤ 1 | Ratio ≥10 | CCOc1cc(C(=O)O)cc2c1nc(Cc1c(F)cc(-c3ccnc(OCc4ccc(Cl)cc4F)n3)c3c1CCO3)n2C[C@@H]1CCO1 [Compound 121, (S)-2-((7-(2-((4-chloro-2-fluorobenzyl)oxy)pyrimidin-4-yl)-5-fluoro-2,3-dihydrobenzofuran-4-yl)methyl)-4-ethoxy-1-(oxetan-2-ylmethyl)-1H-benzo[d]imidazole-6-carboxylic acid]
17 | 1 to 5 | Ratio ≥10 | CCOc1cc(C(=O)O)cc2c1nc(Cc1c(F)cc(-c3ccc(F)c(OCc4ccc(Cl)cc4F)n3)c3c1CCO3)n2C[C@@H]1CCO1 [Compound 122, (S)-2-((7-(6-((4-chloro-2-fluorobenzyl)oxy)-5-fluoropyridin-2-yl)-5-fluoro-2,3-dihydrobenzofuran-4-yl)methyl)-4-ethoxy-1-(oxetan-2-ylmethyl)-1H-benzo[d]imidazole-6-carboxylic acid]
18 | ≤ 1 | Ratio ≥10 | O=C(O)c1ccc2nc(Cc3c(F)cc(-c4cccc(OCc5ccc(Cl)cc5F)n4)c4c3CCO4)n(C[C@@H]3CCO3)c2c1 [Compound 12, (S)-2-((7-(6-((4-chloro-2-fluorobenzyl)oxy)pyridin-2-yl)-5-fluoro-2,3-dihydrobenzofuran-4-yl)methyl)-1-(oxetan-2-ylmethyl)-1H-benzo[d]imidazole-6-carboxylic acid]
19 | ≤ 1 | Ratio ≥10 | COc1cc(C(=O)O)cc2c1nc(Cc1c(F)cc(-c3ccnc(OCc4ccc(Cl)cc4F)n3)c3c1CCO3)n2C[C@@H]1CCO1 [Compound 106, (S)-2-((7-(2-((4-chloro-2-fluorobenzyl)oxy)pyrimidin-4-yl)-5-fluoro-2,3-dihydrobenzofuran-4-yl)methyl)-4-methoxy-1-(oxetan-2-ylmethyl)-1H-benzo[d]imidazole-6-carboxylic acid]
20 | ≤ 1 | Ratio ≥10 | COc1cc(C(F)(F)F)ccc1COc1cccc(-c2cc(F)c(Cc3nc4c(OC)cc(C(=O)O)cc4n3C[C@@H]3CCO3)c3c2OCC3)n1 [Compound 80, (S)-2-((5-fluoro-7-(6-((2-methoxy-4-(trifluoromethyl)benzyl)oxy)pyridin-2-yl)-2,3-dihydrobenzofuran-4-yl)methyl)-4-methoxy-1-(oxetan-2-ylmethyl)-1H-benzo[d]imidazole-6-carboxylic acid]
